Assays:
physchem = type: physicochemical; conditions: for solubility: organic solvent or mixture, thermodynamic from solid
Experimental: FA/AcOH mixtures ranging from 100% FA to 70%/30% FA/AcOH in decrements of 10% were used.
Solutions of FA/AcOH at ratios described in Table 39 were used. […] Samples were taken at each time point (4, 24, and 48 h) and assayed (36 total). Samples were spun down briefly (500 g, 4 min) to precipitate all solids and 25 μL of solution were taken for assay.

[1] = type: physicochemical
Source text: “Compound 1” or “API” in the Examples herein refers to polymorph Form C of 2-(4-chlorophenyl)-N-((2-(2,6-dioxopiperidin-3-yl)-1-oxoisoindolin-5-yl)methyl)-2,2-difluoroacetamide. […] Other forms of Compound 1, including Form A, Form B, Form D, Form F and amorphous form can be used in the formulations provided herein.

[2] = test system: acute myeloid leukemia (AML) at relapse; conditions: administered alone; cited from earlier work

Compound	solubility across FA/AcOH mixtures (physchem)	solubility (physchem; 40 °C) [mg/mL]	solubility (physchem; 60 °C) [mg/mL]	Hygroscopicity [1]	Solid State Stability [1]	major degradation pathway [1]	Solution Stability ([1]; pH 5)	response in treating acute myeloid leukemia (AML) at relapse [2]
O=C1CCC(N2Cc3cc(CNC(=O)C(F)(F)c4ccc(Cl)cc4)ccc3C2=O)C(=O)N1 (centres unmarked) [Compound 1, 2-(4-chlorophenyl)-N-((2-(2,6-dioxopiperidin-3-yl)-1-oxoisoindolin-5-yl)methyl)-2,2-difluoroacetamide]	maximized in 100% FA	> 250	> 250	Not hygroscopic	DS is physically stable under all storage conditions.	Hydrolysis	not stable in solution at pH of 5.0 or above	–
CT-011: anti-PD-1 antibody, a humanized antibody	–	–	–	–	–	–	–	failed to show response
